From patent US9546196B2, “Compositions and methods of treatment of cancers” (The University of Toledo, priority 2009, dated 2017)
“Also recorded” adds a separate entry of the source.

How the values were obtained:
[1] = system: LNCaP cells; assay type: cell-based; parameters: cell death: dose or concentration left out as unconfirmed
Method: FIG. 12B: LNCaP cells were grown without androgen for 2 or 4 days in the presence of increasing concentration of Peptide A-8R [SEQ ID NO: 1] (upper left), Peptide B-8R [SEQ ID NO: 2] (upper right), Peptide C-8R [SEQ ID NO: 3] (lower left), or Peptide D-8R [SEQ ID NO: 4] (lower right). The MTT reagent was used to measure cell density.
FIG. 13A: LNCaP cells were grown with (Right) or without (Left) 1 nM androgen ([…]) for 3 or 6 days in the presence of increasing concentration of Peptide A-8R [SEQ ID NO: 1] or vehicle (70% DMSO). The MTT reagent was used to measure cell density.
FIG. 13B: LNCaP cells were grown with (Right) or without (Left) 1 nM androgen (R1881) for 3 or 6 days in the presence of increasing concentration of Peptide C-8R [SEQ ID NO: 3] or vehicle and then cell density was measured.
FIG. 14A: LNCaP cells were grown with (Right) or without (Left) 1 nM R1881 for 3 or 6 days in the presence of increasing concentration of Peptide A or vehicle and then cell density was measured.
FIG. 14B: LNCaP cells were grown with (Right) or without (Left) 1 nM R1881 for 3 or 6 days in the presence of increasing concentration of Peptide A-8R [SEQ ID NO: 1] or vehicle and then cell density was measured.
FIG. 15A: LNCaP cells were grown for 1-8 hrs in the presence of 10 μM Peptide A-8R [SEQ ID NO: 1] or vehicle and then cell density was measured.
FIG. 19C: LNCaP cells were grown with for 12 or 48 hrs in the presence of increasing concentration of Peptide A-8R [SEQ ID NO: 1] (Left) or PeptideA-8R-Biotin [SEQ ID NO: 1] (Right) and then cell density was measured.
Each peptide contained 8 arginines at the C-terminus, a sequence which is known to mediate plasma membrane translocation and cellular internalization.
(§1) To measure how rapid the cytotoxic effect of Peptide A-8R [SEQ ID NO: 1] occurs, LNCaP cells were treated with 10 μM peptide and incubated for 1-8 hrs. […] Using the same conditions, C81 cells were used to study the peptide effect on hormone-refractory prostate cancer cells.

[2] = system: CWR22-Rv1 (androgen-refractory) cells; test: CWR22-Rv1 cell density with peptide; assay type: cell-based; conditions: 10 μM peptide; 1-8 hrs
Method: FIG. 15C: CWR22-Rv1 (androgen-refractory) cells were grown for 1-8 hrs in the presence of 10 μM Peptide A-8R [SEQ ID NO: 1] or vehicle and then cell density was measured.
as §1

[3] = system: Cos monkey kidney cancer cells; test: Cos cell density with peptide; assay type: cell-based; conditions: even at 100 μM; 2 or 4 days; no endogenous sGCα1
Method: FIG. 17B: Cos monkey kidney cancer cells were grown for 2 or 4 days in the presence of increasing concentration of Peptide A-8R [SEQ ID NO: 1] or vehicle and then cell density was measured.

[4] = system: ACHN human kidney cancer cells; test: ACHN cell density with peptide; assay type: cell-based; conditions: even at 100 μM; 2 or 4 days; no endogenous sGCα1
Method: FIG. 17C: ACHN human kidney cancer cells were grown for 2 or 4 days in the presence of increasing concentration of Peptide A-8R [SEQ ID NO: 1] or vehicle and then cell density was measured.

[5] = system: C81 xenograft tumors; test: C81 xenograft tumors in mice, intratumoral injection; assay type: in vivo
Method: FIGS. 28A-C: Peptide A-8R [SEQ ID NO: 1] inhibits the growth of C81 prostate xenograft tumors. (A) C81 (hormone-independent LNCaP) xenograft tumors were grown in nude mice to a size of about 200 cubic mm and then treated every other day with five intratumoral injections of either Peptide A-8R [SEQ ID NO: 1] ([…] of animal) or vehicle (DMSO) for seven days, after which the tumors were left untreated and allowed to grow for an additional 3 weeks before the tumors were excised. Each point represents the average tumor size of three animals plus or minus the standard deviations. The arrow represents the last treatment of Peptide A-8R [SEQ ID NO: 1] or vehicle. There is a statistical significance (P<0.0004) of Peptide A activity, relative to vehicle, for each treatment day. […] Bar graphs represent averages of each set of three tumors plus standard deviations. Asterisks indicate statistical significance (P<0.02). (C) Image showing the strong anti-tumor effect of Peptide A-8R [SEQ ID NO: 1], as compared to vehicle control, in one animal.
This experiment was then repeated using hormone-refractory C81 cells. 2×10^6 C81 cells in 50 μL of growth medium was mixed with 50 μL Matrigel (BD Biosciences) and injected into both flanks of 4-6-week old SCID male mice. When tumor sizes reached 200 mm^3, 50 μL of Peptide A-8R (40 mg Peptide A-8R/kg of animal) [“A-8R” disclosed as SEQ ID NO: 1] or vehicle (DMSO) was directly injected into the tumors every other day. Injections were stopped after 5 times and tumors were measured every 3 days. Mice were euthanized after 3 weeks and tumors were excised. All procedures were approved by the University of Toledo, Division of Lab Animal Recourses (DLAR). Protein extracts were prepared by boiling the tumor tissue in 3×SDS buffer, and evaluated by SDS-PAGE gel. The procedure was carried out in strict accordance with the recommendations in the Guide for the Care and Use of Laboratory Animals of the National Institutes of Health. […] During the experiments, all animals were monitored daily for morbidity and all efforts were made to minimize suffering. […]

[6] = system: Capan-2 pancreatic cancer cells; test: Capan-2 cell density with peptide; assay type: cell-based; conditions: increasing concentration; 3 or 5 days
Method: FIG. 21B: Capan-2 pancreatic cancer cells were grown for 3 or 5 days in the presence of increasing concentration of Peptide A-8R [SEQ ID NO: 1] or vehicle and then cell density was measured.
To determine if Peptide A-8R [SEQ ID NO: 1] can be cytotoxic to other cancer cells, a pancreatic cancer cell line, Capan-2, was also tested.

“Ac-TFCKAFPFHIIRRRRRRRR-OH [Peptide A-8R]” was tested. Which “cell number, time course” value ([1]; LNCaP, 10 μM peptide, 1-8 hrs) did it give?
The value was “steep decline in cell number with one hour”.

And the cell death ([1]; LNCaP, peptide treatment, by day 6)?
Its cell death is 100%.

And the “effect on LNCaP cell growth / cytotoxicity (in words)” value ([1]; increasing concentration of peptide, days, with or without 1 nM R1881)?
The value was “highly cytotoxic; also recorded: induced LNCaP cell death in both the absence and presence of androgens”.

And the “killing of CWR22-Rv1 cells” value [2]?
The value was “able to kill”.

And the “effect on Cos cells” value [3]?
Its value is “little to no effect”.

What about the “effect on ACHN cells” value [4] of the same substance?
Its value is “little to no effect”.

What about the “tumor growth during treatment” value ([5]; 40 mg/kg intratumoral every other day, five injections) of the same substance?
The value was “stopped tumor growth and actually caused some tumor regression”.

What about the “tumor size versus vehicle-treated tumor in the same mouse” value ([5]; one mouse having two tumors) of the same substance?
The value was “markedly smaller”.

What about the “tumor growth after peptide treatment was stopped” value ([5]; three weeks after treatment was stopped) of the same substance?
The value was “did not grow at all”.

And the “cytotoxicity to Capan-2 cells” value [6]?
The value was “strongly cytotoxic”.
